{"source": "ChEMBL document CHEMBL3507680", "about": "“University of Dundee, Gates Library screen for HepG2 cell viability”"}
{"experiment": "Human HepG2 cell viability assay in 384 well format", "assay_type": "toxicity, cell-based", "set-up": "dose 125 nL, time 70.5 hour; cytotoxicity at 70.5 h: concentration not given beside the values", "conditions": "HepG2 cells, read-out: Inhibition", "units": {"cytotoxicity at 70.5 h": "%"}}
{"smiles": "Cc1ccc(-c2cnnc(NCC3CCOCC3)n2)o1", "cytotoxicity at 70.5 h": 28.5}
{"smiles": "CS(=O)(=O)c1cc(NC(=O)COc2ccccc2F)cc(C(=O)O)c1", "cytotoxicity at 70.5 h": -2.84}
{"smiles": "CC(CN1CCOC1=O)NC(=O)c1cccc(Cl)c1Cl", "note": "(configuration not stated)", "cytotoxicity at 70.5 h": -4.07}
{"smiles": "CC(C)NC(=O)[C@@]12CCO[C@@H]1CCN(Cc1ccco1)C2", "cytotoxicity at 70.5 h": 1.53}
{"smiles": "Cc1nc(CN2CCCC(N(C)c3ccc(C#N)cn3)C2)no1", "note": "(configuration not stated)", "cytotoxicity at 70.5 h": -2.54}
{"smiles": "CNc1cc2c(nn1)CCN(C(=O)c1cc(F)cc(F)c1)C2", "cytotoxicity at 70.5 h": -10}
{"smiles": "Cn1cccc1CCC(=O)N1CCC2(CC1)c1ccccc1CC2O", "note": "(configuration not stated)", "cytotoxicity at 70.5 h": -12.2}
{"smiles": "CN1C(=O)CCCC12CCCN(C(=O)c1ccc3c(c1)OCO3)C2", "note": "(configuration not stated)", "cytotoxicity at 70.5 h": -15.9}
{"smiles": "CSCCC(=O)N1CCCC1c1ccsc1", "note": "(configuration not stated)", "cytotoxicity at 70.5 h": 13.3}
{"smiles": "CC(=O)N1CCN(c2cc(N(C)C)cnn2)CC1", "cytotoxicity at 70.5 h": -3.71}
{"smiles": "COCc1cc(NCc2cc(F)ccc2F)n2nccc2n1", "cytotoxicity at 70.5 h": -0.226}
{"smiles": "COCCNC(=O)N1CCCC(COc2ccccc2)C1", "note": "(configuration not stated)", "cytotoxicity at 70.5 h": 1.11}
{"smiles": "Cc1ccc(NC(=O)CNc2cccc(C(N)=O)c2C)c(C)c1", "cytotoxicity at 70.5 h": 33.2}
{"smiles": "CCOc1ccc(C(F)(F)F)cc1NCc1nc(C)c(C)o1", "cytotoxicity at 70.5 h": -2.62}
{"smiles": "CCCC(=O)NC1CCN(c2ccccc2S(=O)(=O)CC)CC1", "cytotoxicity at 70.5 h": 17.6}
{"smiles": "CCCN(Cc1ccc(S(=O)(=O)NC)cc1)Cc1ccccc1OC", "cytotoxicity at 70.5 h": 1.33}
{"smiles": "Cc1cc(C)cc(OCCC(=O)N2CCOCC2c2ncon2)c1", "note": "(configuration not stated)", "cytotoxicity at 70.5 h": 5.7}
{"smiles": "Cc1noc(Cl)c1CCC(=O)N1CCN(c2ccccc2)CC1", "cytotoxicity at 70.5 h": 7.33}
{"smiles": "c1cnnc(N2CCCC2CNCc2nc(-c3cccs3)no2)c1", "note": "(configuration not stated)", "cytotoxicity at 70.5 h": -15.1}
{"smiles": "O=C(CC1CC1)N(Cc1cccnc1)CC1CCN(C2CCCC2)CC1", "cytotoxicity at 70.5 h": -1.09}
{"smiles": "CN(C)[C@H]1COC[C@@H]2CN(Cc3ccc4c(c3)OCO4)C[C@@H]21", "cytotoxicity at 70.5 h": -3.62}
{"smiles": "Cc1cnc(N2CCC3(CC2)CC(NC(=O)N(C)C)CO3)nc1", "note": "(configuration not stated)", "cytotoxicity at 70.5 h": -0.406}
{"smiles": "O=C(c1cccs1)N1CCCC(c2cc(C(F)F)n3ncnc3n2)C1", "note": "(configuration not stated)", "cytotoxicity at 70.5 h": 0.957}
{"smiles": "CCOC(=O)N1CC2(CCNCC2)c2cc(Cl)ccc21", "cytotoxicity at 70.5 h": -11.6}
{"smiles": "CC(C)N1CCO[C@H]2CN(C(=O)c3ccncc3)C[C@H]21", "cytotoxicity at 70.5 h": 11.9}
{"smiles": "Cc1cc(NC(=O)NC(C)(C)c2nc(C)c(C)s2)no1", "cytotoxicity at 70.5 h": -8.02}
{"smiles": "CC(=O)N1CCS(=O)(=O)[C@@H]2CCN(CC(C)C)CC[C@@H]21", "cytotoxicity at 70.5 h": -6.52}
{"smiles": "CCn1cnnc1CNC(=O)N1CCOC(c2ccccc2Cl)C1", "note": "(configuration not stated)", "cytotoxicity at 70.5 h": -3.84}
{"smiles": "CO[C@@H]1CCN(C(=O)c2ccsc2)[C@@H]2CN(CC3CC3)C[C@@H]21", "cytotoxicity at 70.5 h": -4.96}
{"smiles": "Cc1ccccc1-c1noc(CN2CC(n3cccn3)C2)n1", "cytotoxicity at 70.5 h": -5.02}
{"smiles": "CCn1nccc1CNC(=O)C1CCCO1", "note": "(configuration not stated)", "cytotoxicity at 70.5 h": 0.767}
{"smiles": "CCOCC(=O)N1CCC(c2nccn2Cc2cscn2)CC1", "cytotoxicity at 70.5 h": 21.4}
{"smiles": "CN(C)C(=O)CN1CCC2(CCN(C(=O)N3CCCC3)CC2)C1=O", "cytotoxicity at 70.5 h": -3.29}
{"smiles": "CSc1cccc(CNC(=O)C2CC(=O)N(CCN(C)C)C2)c1", "note": "(configuration not stated)", "cytotoxicity at 70.5 h": 4.55}
{"smiles": "CCOc1ccc(C(=O)CCC(=O)N(C)Cc2nc(C)c[nH]2)cc1C", "cytotoxicity at 70.5 h": -19.8}
{"smiles": "Cc1noc(C2CCCN(C(=O)c3cc(-c4ccccc4)on3)C2)n1", "note": "(configuration not stated)", "cytotoxicity at 70.5 h": -20.7}
{"smiles": "CCc1nnc2n1CCN(Cc1ccc(C(=O)N3CCCC3)cc1)C2", "cytotoxicity at 70.5 h": -25.8}
{"smiles": "Cc1cc(NC(=O)CN2CCc3nn(C)c(=O)cc3C2)no1", "cytotoxicity at 70.5 h": -9.67}
{"smiles": "CCOC(=O)CN(CC(F)(F)F)C(=O)c1nc(C)n2ccccc12", "cytotoxicity at 70.5 h": -15.3}
{"smiles": "CCOc1ncccc1CNC(=O)NC1CCOc2ccccc21", "note": "(configuration not stated)", "cytotoxicity at 70.5 h": -4.63}
{"smiles": "O=C(NC1CCCN(c2ccccc2Cl)C1)c1ccc(=O)[nH]n1", "note": "(configuration not stated)", "cytotoxicity at 70.5 h": -12.6}
{"smiles": "COCC(=O)NCC1CCN(Cc2ccsc2)CC1", "cytotoxicity at 70.5 h": 33.7}
{"smiles": "Cc1cc(=O)n2c(n1)SCC2CC(=O)NCc1cc(-c2ccco2)on1", "note": "(configuration not stated)", "cytotoxicity at 70.5 h": -9.17}
{"smiles": "Cc1cnn(CC2CN(c3cnc4ccccc4n3)CCO2)c1", "note": "(configuration not stated)", "cytotoxicity at 70.5 h": 48.4}
{"smiles": "CN(CCO)C1CCN(c2ncc3c(n2)CCN3c2ccccc2)CC1", "cytotoxicity at 70.5 h": -3}
{"smiles": "Cc1cccc(CN2C(=O)CC[C@@H]3[C@H]2CCN3CC2CCOCC2)n1", "cytotoxicity at 70.5 h": -18.9}
{"smiles": "COCc1ccc(C(=O)N2CC[C@@](O)(COC)C(C)(C)C2)o1", "cytotoxicity at 70.5 h": -6.95}
{"smiles": "Cc1nc(CCCNC(=O)Nc2ccc(F)cc2F)n[nH]1", "cytotoxicity at 70.5 h": -6.94}
{"smiles": "Cn1c(CS(=O)(=O)Cc2ccc(Cl)cc2)cc(=O)n(C)c1=O", "cytotoxicity at 70.5 h": -6.35}
{"smiles": "NC(=O)C(NCCc1ccc(Cl)s1)c1ccccc1", "note": "(configuration not stated)", "cytotoxicity at 70.5 h": -11.4}
{"smiles": "CN(CCc1noc(C2CC2)n1)C(=O)C1(N2CCCC2)CCCC1", "cytotoxicity at 70.5 h": -3.64}
{"smiles": "COc1ncccc1C(=O)N1CC[C@H]2C[C@@H](C)O[C@@H]2C1", "cytotoxicity at 70.5 h": -21.5}
{"smiles": "Fc1cccc2[nH]c(CN3CCc4cncnc4C3)nc12", "cytotoxicity at 70.5 h": -7.7}
{"smiles": "O=C(Nc1ccc(Cl)cn1)c1cncc(C2CCNCC2)n1", "cytotoxicity at 70.5 h": -7.54}
{"smiles": "Cc1cc(CN[C@H](C(N)=O)[C@@H](C)O)c(C)s1", "cytotoxicity at 70.5 h": -3.69}
{"smiles": "COCc1nccc(C2CCCN(Cc3cccc(F)c3)C2)n1", "note": "(configuration not stated)", "cytotoxicity at 70.5 h": 0.742}
{"smiles": "Cc1noc(C(C)N2CCN(CCN3CCCC3=O)CC2)n1", "note": "(configuration not stated)", "cytotoxicity at 70.5 h": -4.25}
